From patent publication US7927785B2, “Methods for in vitro expansion of hematopoietic stem cells” (The Board of Trustees of the University of Illinois, priority 2002, dated 2011)

Assays:
[1] = test system: adult human bone marrow CD34+ cells; experiment: Phenotypic analysis (FACS) of marrow CD34+ cells after ex vivo culture; assay type: cell-based; conditions: 9 days of culture; single agent; % of total cells
Method: To promote cell division of isolated CD34^+ cells, a stroma-free suspension culture was established as previously described (Bazil et al., 1995). Tissue culture dishes (35 mm; Costar, Corning, N.Y.) were seeded with 1×10^5 CD34^+cells/well in 2.5 mL Iscove modified Dulbecco medium (IMDM) (Biowhittaker, Walkersville, Md.) containing 30% FBS and a cocktail of cytokines specifically thought to promote exit from G0/G1 in primitive HSC populations which consisted of 100 ng/mL recombinant stem cell factor (SCF), 100 ng/mL FLT-3 ligand, 100 ng/mL thrombopoetin (TPO) and 50 ng/mL of interleukin (IL)-3, (all from Amgen Inc., Thousand Oaks, Calif.).
Cells were maintained in the media and incubated at 37° C. in a 100%-humidified atmosphere containing 5% CO2 for 48 hours. After intial 16 hours of incubation cells were exposed to the demethylating agent, 5-aza2′deoxycitidine (5azaD) (Sigma Chemicals, St. Louis, Mo.) at a concentration of 10^−6M. After 48 hours, cells were washed by centrifugation and then equally distributed to new tissue culture dishes in 2.5 mL IMDM supplemented with 30% FBS containing cytokines known to promote terminal differentiation of HSC into multiple hematopoietic lineages. The cocktail of cytokines contained 100 ng/mL of SCF, 50 ng/ml of granulocyte colony-stimulating factor (G-CSF), 50 ng/mL of IL-3, 50 ng/ml of IL-6 and 5 units (U)/mL of recombinant erythropoietin (EPO) (Amgen Inc., Thousand Oaks, Calif.). Cells at this time point were exposed to Trichostatin (TSA) (Sigma Chemical., St. Louis, Mo.) at 5 ng/mL and the culture was continued for an additional 7 days. At the end of the culture period cells were counted for viability by the trypan blue exclusion method using an inverted microscope. 5-fluorouracil (5-FU) (Sigma Chemical., St. Louis, Mo.) was used at a concentration of 200 μg/ml and added at the 16 hour time point instead of 5azaD and the cultures carried on as described above with no addition of TSA.
The phenotypic characteristics of the CD34^+ cells were analyzed using FACS. After 9 days of culture, expanded marrow CD34^+ cells were analyzed for primitive HSC phenotype, previously defined, by using flow activated-cell sorter (FACS) (Becton Dickinson (BD) FACS Calibur, San Jose, Calif.). Cells were stained with anti-human CD34^+ moAb conjugated either to fluorescein isothiocyanate (FITC) or phycoerythrin (PE) and another moAb including anti-CD38, anti-CD117, anti-CD90. To determine the lineage positive cells a panel of moab all conjugated to FITC (anti-CD2, anti-CD14, anti-CD15, anti-CD19 and anti-GlyA) (all antibodies were purchased from BD) were utilized. All anaylsis were paired with the corresponding matched isotype control of the specific moAb utilized. All staining and washes were performed in DPBS (Biowhittaker, Walkersville Md.) and 0.5% BSA (Sigma, Chemicals Co., St. Louis, Mo.). Immediately prior to FACS anaylsis, […] propidium iodide (PI) (Sigma, Chemicals Co., St. Louis, Mo.) was added for the exclusion of nonviable cells for phenotypic analysis. Using Cell-Quest software (BD), at least 10,000 live cells were acquired for each analysis.

[2] = test system: CpG residue located at −256 position within the γ-globin promoter region; experiment: COBRA (Combined Bisulfite Restriction Analysis) of DNA methylation; assay type: cell-based, human
Method: DNA was prepared from cultured CD34^+ cells (0.5-2.0×10^6 total cells) using the QIAamp DNA blood Minikit (Qiagen, Valencia, Calif.) according to manufacturer's instructions. The purified DNA was digested with 10-20 units Hind III at 37° C. for one hour followed by two extractions with a 50/50/1 mixture of phenol/chloroform/isoamyl:alcohol saturated with 0.5 M Tris, pH 7.5. The digested DNA was precipitated overnight at −20° C. in the presence of 2.5 volumes ethanol and 0.3 M sodium acetate, pH 7.0. DNA was harvested by centrifugation, washed 2× in 70% ethanol and dissolved in H2O.
DNA Denaturation was performed by incubation of 1-2 μg DNA in 10-20 μl 0.3 M NaOH at 37° C. for 20 minutes. Bisulfite modification was performed by the addition of 200 μl bisulfite solution (2.5 M sodium metabisulfite, 100 mM hydroquinone) prepared according to the method as described (Clark et al., Nucleic Acid Res. 22:2990-2997, 1994; Raizis et al., Anal. Biocem; 226:161-166, 1995; Xiong et al., Nucleic Acid Res., 2532-2534, 1997), followed by incubation for 4 hours at 50° C. […]
For COBRA (Combined Bisulfite Restriction Analysis), a 201 bp fragment of the γ-globin promoter region was amplified by two rounds of PCR using doubly nested primers. […] Digested products were analyzed by polyacrylamide gel electrophoresis (5% gel), visualized by staining with ethidium bromide, and quantified by densitometry.

| Compound | CD34+ CD90+ % [1] | CD34+ CKit lo % [1] | CD34+ Lin− % [1] | CD34+CD38− % [1] | CD34+CD133+ % [1] | Total CD34+ % [1] | % Hypomethylation ([2]; 5 days of culture, 5azaD 10−6M, TSA 5 ng/ml, approximated) | % Methylation (COBRA, −256 position of γ-globin promoter) ([2]; cultured 5 days with cytokines, densitometry) |
| --- | --- | --- | --- | --- | --- | --- | --- | --- |
| CC(/C=C/C(=O)NO)=C\[C@@H](C)C(=O)c1ccc(N(C)C)cc1 [TSA, Trichostatin A] | 0.8% | 3% | 4% | 1.8% | 0.45% | 4% | – | – |
| Nc1ncn([C@H]2C[C@H](O)[C@@H](CO)O2)c(=O)n1 [5azaD, 5-aza2′deoxycitidine] | 7% | 19% | 30% | 20% | 12% | 30% | 68% | 32% |
